Reference: US20100130598A1, “METHODS FOR INDUCING PROGRAMMED CELL DEATH” (Novogen Research Pty Ltd., priority 2008, published 2010)

Assays:
[1] = system: MIAPaCa-2 cells; test: Western blot analysis of apoptosis regulatory proteins, p21 and p53, MIAPaCa-2; type: cell-based, human
Source text: Cells. Human pancreatic cell lines HPAC, MIAPaCa-2 and PANC-1 were obtained from the ATCC. (Manassas, Va.). The cells were maintained in DMEM media with Gln and high glucose (Mediatech, Manassas, Va.) with 10% fetal bovine serum (FBS, HyClone, Logan, Utah) and pencillin/streptomycin.
Antibodies. Antibodies utilised in this study specific to p53 and, p21 were obtained from (Calbiochem, EMD, San Diego, Calif.), Caspase 9, XIAP, COX IV, Bcl2 and Akt (Cell Signaling Technology, Danvers, Mass.), Caspase 2, Cytochrome c and Bid (BD Pharmingen, San Diego, Calif.). GAPDH (RDI, Concord, Mass.) or β-actin (Sigma, St. Louis, Mo.) was used as a housekeeping gene to standardize the protein loading on the gels and blots.
Western blot analysis. Cells were seeded on 100 mm tissue culture plates and grown overnight to ˜90% confluence. Cells were then treated with the drug combinations for indicated time points. After the final treatment step, the cells were lysed with 500 μL of a lysis buffer containing 1% Nonidet P-40, 0.1% SDS, 0.5% deoxycholate, 150 mM NaCl, 50 mM Tris-HCl pH7.5, 1 mM EDTA, 1 mM PMSF and protease inhibitors (Roche) on ice for 30 minutes. Cell lysates were harvested with a sterile cell scraper and centrifuged at 15,000×g for 15 minutes to remove cell debris. Protein was assayed by the BCA method (Pierce) and 50 μg aliquots were separated on 12%, T, 2.6%C SDS-PAGE gels. Proteins were electrophoretically transferred to PVDF membranes (Immobilon P, Millipore, Billerica, Mass.) by the wet transfer method. These membranes were probed with specific antibodies and with anti-GAPDH which was used as the housekeeping gene to standardize the protein loading. The blots were developed on X-ray films using HRP-conjugated secondary antibodies (Southern Biotech, Birmingham, Ala.) and a chemiluminescent substrate (ECL, Amersham, N.Y.).

[2] = system: EOC cells; test: Flow cytometry with Hoechst and Propidium iodide staining (DNA fragmentation); type: cell-based, human; conditions: Compound 1 10 g/ml (as printed, FIG. 1B legend), 24 h
Source text: Cell lines and culture conditions. Established human EOC cell lines, A2780 and A2780/CP70 (gifts from Dr. T C Hamilton) (Behrens et al, 1997) were propagated in RPMI plus 10% fetal bovine serum (Gemini Bio-Products, Woodland, Calif.). Primary EOC cell lines were isolated from malignant ovarian ascites or explanted from ovarian tumors and cultured as previously described (Alvero et al, 2006). Purity of the EOC cells was 100% as determined by immuno-staining for cytokeratin 7 antigen. All cell lines were grown at 37° C. in a 5% CO2 atmosphere.
Flow cytometry with Hoechst and Propidium iodide staining. After treatment, cells were trypsinized, washed twice with PBS, and resuspended at 1×10^6 cells/ml. Cells were then stained with 5 μg/ml Hoechst 33342 (Invitrogen-Molecular Probes, Carlsbad, Calif.) and 1 μg/ml Propidium iodide (Sigma Aldrich) and incubated for 15 mins in the dark. Afterwards, data was acquired using BD LSR II System and analyzed using FloJo FACS analysis software (Tree Star, Inc., Ashland, Oreg.).

[3] = system: LC3-II; test: Western blot of EOC whole cell lysates for LC3-II; type: cell-based, human; conditions: EOC cells, 10 g/ml (as printed, FIG. 3 legend)
Source text: Protein preparation and cellular fractionation. After drug treatment, protein was extracted and measured as previously described (Alvero et al, 2006). For separation of the cytoplasmic and mitochondrial fractions, cell pellets were processed using the ApoAlert™ Cell Fractionation Kit (BD Biosciences, San Jose, Calif.) according to the manufacturer's instructions. For separation of the cytoplasmic and nuclear fractions, pellets were processed using NE-PER Nuclear and Cytoplasmic Extraction (Pierce Biotechnology, Inc., Rockford, Ill.).
SDS-PAGE and Western blots. Cell lysates (20 μg protein) were denatured in sample buffer (2.5% SDS, 10% glycerol, 5% β-mercapto-ethanol, 0.15 M Tris (pH=6.8) and 0.01% bromophenol blue) and subjected to 12% SDS-PAGE as previously described (Kamsteeg et al, 2003). […]

[4] = system: EOC tumors; test: Mouse EOC xenograft study; type: in vivo
Procedure: Mouse xenograft studies. The in vivo study as approved by the Yale University Institutional Animal Care & Use Committee. Cells (1×10^6 cells) were resuspended in 200 μ1 total volume of 50% RPMI and 50% BD Matrigel Matrix (BD Biosciences, Bedford, Mass.) and injected subcutaneously into the right flank of NCR nude mice. Intra-peritoneal therapy commenced eight days post-inoculation as follows: Paclitaxel 10 mg/kg q×3d, Carboplatin 40 mg/kg q×7d, and Compound 1 in 20% HPBCD, 100 mg/kg every day. Control groups received 20% HPBCD in PBS. Mice were treated and observed for 3 weeks. Tumor size was determined by caliper measurements and anti-tumor activity was analyzed with respect to maximal tumor inhibition (treated/control, T/C) as described previously (Kamsteeg et al, 2003).

| Structure (SMILES) | expression of p53 ([1]; MIAPaCa-2 (mutant p53), 10 μM) | cleavage of Caspase 3 ([1]; MIAPaCa-2, 10 μM) | full-length Caspase 2 (48Kd) cleavage ([1]; MIAPaCa-2, 10 μM) | levels of Bcl2 ([1]; MIAPaCa-2, 10 μM) | p21 ([1]; MIAPaCa-2, 10 μM) | total Akt ([1]; MIAPaCa-2, 10 μM, early timepoint (4 hr)) | Bid cleavage ([1]; MIAPaCa-2, 10 μM, over time) | cleaved caspase 9 (17kd) ([1]; MIAPaCa-2, 10 μM, time course 0-48 hrs) | level of XIAP ([1]; MIAPaCa-2, 10 μM, degradation more pronounced than in HPAC) | cells staining positively for both Hoechst and PI (fragmented DNA) [2] | levels of LC3-II [3] | tumor proliferation kinetics, final tumor size and volume ([4]; dose-dependent, compared to carboplatin and paclitaxel) | T/C values (maximal tumor inhibition, treated/control) ([4]; intra-peritoneal, 3 weeks, Compound 1 100 mg/kg every day, Carboplatin 40 mg/kg q×7d, Paclitaxel 10 mg/kg q×3d) | toxic side effects ([4]; mouse, in vivo) |
| --- | --- | --- | --- | --- | --- | --- | --- | --- | --- | --- | --- | --- | --- | --- |
| COc1ccc(C2c3ccc(O)cc3OCC2c2ccc(O)cc2)cc1 (centres unmarked) [Compound 10, 3-(4-hydroxyphenyl)-4-(4-methoxyphenyl)chroman-7-ol] | unaffected | did not cause significant cleavage | cleaved | lowered | elevated | reduced | induced Bid cleavage over time | initial drop in cleaved caspase 9 (17kd) followed by an increase after 16 hr | reduced | – | – | – | – | – |
| COc1ccc(C2c3ccc(O)c(C)c3OCC2c2ccc(O)cc2)cc1 (centres unmarked) [Compound 1, 3-(4-hydroxyphenyl)-4-(4-methoxyphenyl)-8-methylchroman-7-ol] | – | – | – | – | – | – | – | – | – | 95% | significant increase | significant decrease | 30% | No toxic side effects |
